Patent US20110158954A1, “METHOD FOR PRODUCING GAMMA DELTA T CELL POPULATION” (priority 2007, published 2011)

B1: H296-H296: modified fibronectin fragment in which two H-296's are connected to each other (SEQ ID NO: 22) (protein)
chain: AIPAPTDLKFTQVTPTSLSAQWTPPNVQLTGYRVRVTPKEKTGPMKEINLAPDSSSVVVSGLMVATKYEVSVYALKDTLTSRPAQGVVTTLENVSPPRRARVTDATETTITISWRTKTETITGFQVDAVPANGQTPIQRTIKPDVRSYTITGLQPGTDYKIYLYTLNDNARSSPVVIDASTAIDAPSNLRFLATTPNSLLVSWQPPRARITGYIIKYEKPGSPPREVVPRPRPGVTEATITGLEPGTEYTIYVIALKNNQKSEPLIGRKKTDELPQLVTLPHPNLHGPEILDVPSTAMAIPAPTDLKFTQVTPTSLSAQWTPPNVQLTGYRVRVTPKEKTGPMKEINLAPDSSSVVVSGLMVATKYEVSVYALKDTLTSRPAQGVVTTLENVSPPRRARVTDATETTITISWRTKTETITGFQVDAVPANGQTPIQRTIKPDVRSYTITGLQPGTDYKIYLYTLNDNARSSPVVIDASTAIDAPSNLRFLATTPNSLLVSWQPPRARITGYIIKYEKPGSPPREVVPRPRPGVTEATITGLEPGTEYTIYVIALKNNQKSEPLIGRKKTDELPQLVTLPHPNLHGPEILDVPST
modifications: Fibronectin fragment named H296-H296

Key:
γδ T cells [1] = assay: Expansion of γδ T cell population using pamidronate, CH-296 plate (Example 3); type: cell-based; conditions: human PBMCs; IMDM; pamidronate 5 μM; immobilized CH-296; day 14
Description: The expansion was carried out in the same manner as Example 2, except that a plate immobilized with CH-296 prepared in Example 1-(2) was used.
The ratio of the γδ T cells was analyzed according to flow cytometry for PBMCs prepared in Example 1-(1) and the cells on the fourteenth day from the initiation of culture prepared in Example 3-(1), in the same manner as in Example 1-(4). As a result, the ratio of γδ T cells was 8.9% for the PBMCs, and the ratio was from 96.0 to 96.9% for the cells on the fourteenth day from the initiation of culture.
(§1) The number of live cells was counted according to trypan blue staining method for the cells on the fourteenth day from the initiation of culture prepared in Example 3-(1). The expansion fold of γδ T cells was calculated in comparison of the counted number with the number of γδ T cells at the initiation of culture, in the same manner as in Example 1-(5).

γδ T cells [2] = assay: Expansion of γδ T cell population cultured using pamidronate (Example 2); type: cell-based; conditions: human PBMCs; IMDM; stimulant pamidronate 5 μM; IL-2 100 U/mL; immobilized FN fragment; day 14
Description: PBMCs prepared in Example 1-(1) were suspended in IMDM containing 0.25% (w/v) HSA, so as to have a concentration of 2×10^6 cells/mL, to prepare a cell suspension. Thereafter, the above-mentioned cell suspension was added to a plate to which nothing was immobilized or a plate immobilized with H296-H296, prepared in Example 1-(2), in a volume of 1 mL/well each. Pamidronate was added to each well so as to have a final concentration of 5 μM. These plates were incubated at 37° C. in 5% CO2 (zeroth day of culture). On the second day from the initiation of culture, IL-2 was added to each well so as to have a final concentration of 100 U/mL. […]
The ratio of γδ T cells was analyzed according to flow cytometry for PBMCs prepared in Example 1-(1) and the cells on the fourteenth day from the initiation of culture prepared in Example 2-(1), in the same manner as in Example 1-(4). […]
as §1, with “2-(1).” for “3-(1).”

Molecule | expansion fold of γδ T cells compared to control group (γδ T cells [1]) | Expansion Fold of γδ T Cells (Folds) Fourteenth Day of Culture (γδ T cells [2])
CH-296: polypeptide comprising a cell binding domain, a heparin binding domain and a CS-1 domain of fibronectin (SEQ ID NO: 13) | high expansion fold of γδ T cells during the culture, as compared to that of the control group | –
B1 | – | ×101.8 Folds
